ChEMBL document CHEMBL1201862, “PubChem BioAssay data set” (2004)
Active and inactive are the calls of the source.

Tests used:
Ephrin type-A receptor 4 = Ephrin type-A receptor 4 (Mus musculus, UniProt Q03137); assay: inhibitors of EphA4 binding to KYL peptide, primary screen, biochemical, colorimetric, mouse EphA4 (AID 689); type: functional
Estrogen receptor beta [1] = target: T1, Estrogen receptor beta (Homo sapiens, UniProt Q92731);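 also: recombinant ER-beta bound to coactivator SRC1 peptide in presence of estradiol agonist; inhibitors block coactivator peptide binding and lower the FRET signal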
[2] = target: Glyceraldehyde-3-phosphate dehydrogenase (Homo sapiens, UniProt P04406)
[3] = target: T2, Dual specificity protein phosphatase 6 (Rattus norvegicus, UniProt Q64346); type: functional
T2 sequence (Q64346 whole entry): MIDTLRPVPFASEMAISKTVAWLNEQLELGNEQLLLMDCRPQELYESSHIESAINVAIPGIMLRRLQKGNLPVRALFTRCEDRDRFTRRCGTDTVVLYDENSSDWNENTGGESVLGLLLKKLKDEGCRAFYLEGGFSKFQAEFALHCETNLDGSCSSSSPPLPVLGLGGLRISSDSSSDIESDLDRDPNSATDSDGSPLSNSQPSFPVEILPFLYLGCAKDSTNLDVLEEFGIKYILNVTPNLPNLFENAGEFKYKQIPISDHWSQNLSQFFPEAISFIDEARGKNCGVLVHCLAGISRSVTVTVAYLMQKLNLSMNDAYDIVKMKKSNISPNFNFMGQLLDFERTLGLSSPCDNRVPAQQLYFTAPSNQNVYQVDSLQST

[4] = target: Induced myeloid leukemia cell differentiation protein Mcl-1 (Homo sapiens, UniProt Q07820); type: functional
Estrogen receptor = target: T3, Estrogen receptor (Homo sapiens, UniProt P03372);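 also: potency for inhibiting coactivator peptide recruitment to the receptor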
T3 sequence (P03372 whole entry): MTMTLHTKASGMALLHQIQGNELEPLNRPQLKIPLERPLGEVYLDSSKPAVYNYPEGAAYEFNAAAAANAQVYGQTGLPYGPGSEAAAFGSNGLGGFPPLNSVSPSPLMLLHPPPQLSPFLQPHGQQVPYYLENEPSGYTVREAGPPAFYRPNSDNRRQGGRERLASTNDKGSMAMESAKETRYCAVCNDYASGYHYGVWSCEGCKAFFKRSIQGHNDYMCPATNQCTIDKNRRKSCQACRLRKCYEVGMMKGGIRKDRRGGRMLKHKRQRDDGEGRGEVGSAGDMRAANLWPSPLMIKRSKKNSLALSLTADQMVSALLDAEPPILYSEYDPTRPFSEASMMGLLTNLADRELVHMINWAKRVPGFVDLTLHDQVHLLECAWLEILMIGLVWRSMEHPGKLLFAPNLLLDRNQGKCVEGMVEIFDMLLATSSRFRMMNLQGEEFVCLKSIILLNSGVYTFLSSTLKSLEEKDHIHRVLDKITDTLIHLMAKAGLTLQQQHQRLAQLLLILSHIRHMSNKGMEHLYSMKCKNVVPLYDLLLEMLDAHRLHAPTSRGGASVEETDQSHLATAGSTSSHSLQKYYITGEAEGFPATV

[5] = target: T2, Dual specificity protein phosphatase 6; assay: MKP-3 phosphatase inhibitors, primary screen, biochemical, rat enzyme, in vitro (AID 425)
Estrogen receptor beta [6] = target: T1, Estrogen receptor beta; assay: ERβ–SRC-3 coactivator interaction inhibitors, confirmation, orthogonal assay, biochemical, ELISA, streptavidin-HRP readout (AID 1060)
Bcl-2-like protein 10 = Bcl-2-like protein 10 (Homo sapiens, UniProt Q9HD36); assay: displacers of TR3 peptide from Bcl-B, primary screen, selectivity assay for Bfl-1 inhibitor project, biochemical, fluorescence polarization, FITC-TR3 peptide (AID 748);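 also: fluorescence polarization from a fluorescein-labelled TR3 peptide binding purified Bcl-B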
[7] = target: T2, Dual specificity protein phosphatase 6
[8] = target: T4, Tyrosine-protein phosphatase non-receptor type 7 (Homo sapiens, UniProt P35236); type: functional
T4 sequence (P35236 whole entry): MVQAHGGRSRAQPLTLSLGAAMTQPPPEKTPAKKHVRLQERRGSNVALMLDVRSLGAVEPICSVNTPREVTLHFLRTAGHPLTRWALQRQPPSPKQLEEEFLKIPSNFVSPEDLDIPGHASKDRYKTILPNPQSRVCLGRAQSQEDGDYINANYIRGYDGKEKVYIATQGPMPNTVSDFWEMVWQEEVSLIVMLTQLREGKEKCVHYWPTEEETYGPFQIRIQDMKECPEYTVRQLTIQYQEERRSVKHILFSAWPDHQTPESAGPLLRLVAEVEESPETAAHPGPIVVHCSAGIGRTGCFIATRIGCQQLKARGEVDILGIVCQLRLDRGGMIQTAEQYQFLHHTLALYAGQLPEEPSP

HEK293 [9] = assay: cells; type: functional, cell-based; conditions: Homo sapiens
[10] = target: T5, Nucleotide-binding oligomerization domain-containing protein 1 (Homo sapiens, UniProt Q9Y239); assay: NOD1 signaling inhibitors, SAR follow-up, revised (AID 2333); type: functional
T5 sequence (Q9Y239 whole entry): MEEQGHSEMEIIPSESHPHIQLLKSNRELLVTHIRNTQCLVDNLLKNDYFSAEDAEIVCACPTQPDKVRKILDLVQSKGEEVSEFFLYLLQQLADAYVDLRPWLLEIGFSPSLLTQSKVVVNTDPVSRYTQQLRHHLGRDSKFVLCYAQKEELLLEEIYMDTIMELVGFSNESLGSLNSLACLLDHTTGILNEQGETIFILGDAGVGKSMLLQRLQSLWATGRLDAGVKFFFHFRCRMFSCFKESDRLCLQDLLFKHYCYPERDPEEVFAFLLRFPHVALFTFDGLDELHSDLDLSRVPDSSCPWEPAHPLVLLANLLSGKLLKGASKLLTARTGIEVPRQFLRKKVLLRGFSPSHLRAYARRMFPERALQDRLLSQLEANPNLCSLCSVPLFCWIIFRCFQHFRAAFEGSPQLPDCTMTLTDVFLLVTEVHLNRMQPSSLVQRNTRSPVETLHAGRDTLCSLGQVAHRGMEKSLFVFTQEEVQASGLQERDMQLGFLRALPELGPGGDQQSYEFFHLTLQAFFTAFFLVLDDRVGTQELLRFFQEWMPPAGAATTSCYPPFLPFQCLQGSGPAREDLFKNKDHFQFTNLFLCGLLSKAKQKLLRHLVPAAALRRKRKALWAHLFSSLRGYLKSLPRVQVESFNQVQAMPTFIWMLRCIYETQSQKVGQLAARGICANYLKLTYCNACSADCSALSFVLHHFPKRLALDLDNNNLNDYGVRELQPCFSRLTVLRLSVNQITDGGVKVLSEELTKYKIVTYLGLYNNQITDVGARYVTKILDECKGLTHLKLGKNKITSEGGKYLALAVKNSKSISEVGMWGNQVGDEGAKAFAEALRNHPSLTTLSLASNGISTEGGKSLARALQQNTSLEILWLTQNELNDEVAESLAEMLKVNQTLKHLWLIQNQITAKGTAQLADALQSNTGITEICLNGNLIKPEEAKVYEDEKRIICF

[11] = target: Nucleotide-binding oligomerization domain-containing protein 2 (Homo sapiens, UniProt Q9HC29); assay: PubChem AID 2334; type: functional
Tumor necrosis factor = Tumor necrosis factor (Homo sapiens, UniProt P01375); assay: TNFa-triggered NF-kB activation inhibitors, SAR follow-up, cell-based, revised (AID 2337); type: functional
HEK293 [12] = assay: NOD2 signaling inhibitors in MDP-stimulated cells, cell-based, uHTS, luminescence (AID 2001); type: functional; conditions: Homo sapiens
HEK293 [13] = assay: NOD1 signaling inhibitors, primary screen, cell-based, luminescence, uHTS (AID 1578); type: functional; conditions: Homo sapiens
HEK293 [14] = assay: cells; type: functional, cell-based; conditions: Homo sapiens; remark: listed apart in the source
HEK293 [15] = assay: cells; conditions: Homo sapiens
[16] = target: Multidrug resistance protein CDR1 (Candida albicans, UniProt P43071); assay: CaCDR1 efflux pump inhibitors in yeast, dose response, S. cerevisiae AD1-8u, singleplex, Cherry Pick1 hits (AID 588606); type: functional
[17] = target: NACHT, LRR and PYD domains-containing protein 3 (Homo sapiens, UniProt Q96P20); assay: NALP3 inhibitors in yeast, dose response, luminescent (AID 488799); type: functional
[18] = inhibition of K1F phage lysis, E. coli UTI89, bacterial capsule biogenesis inhibitors, alamar blue (AID 488966); type: functional
Large T antigen = Large T antigen (Simian virus 40, UniProt P03070); type: functional, Betapolyomavirus macacae;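 also: Confirmatory-stage PubChem screen for compounds that inhibit SV40 T antigen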
[19] = target: T6, Voltage-dependent T-type calcium channel subunit alpha-1H (Homo sapiens, UniProt O95180); type: functional
[20] = target: T6, Voltage-dependent T-type calcium channel subunit alpha-1H; assay: Inhibitors of T-Type Calcium Channels. [Related pubchem assays (depositor defined):AID449739, AID463087, AID489005, AID493041, AID504579, AID504584, AID504619, AID504628]; type: functional

T1 sequence (Q92731 whole entry): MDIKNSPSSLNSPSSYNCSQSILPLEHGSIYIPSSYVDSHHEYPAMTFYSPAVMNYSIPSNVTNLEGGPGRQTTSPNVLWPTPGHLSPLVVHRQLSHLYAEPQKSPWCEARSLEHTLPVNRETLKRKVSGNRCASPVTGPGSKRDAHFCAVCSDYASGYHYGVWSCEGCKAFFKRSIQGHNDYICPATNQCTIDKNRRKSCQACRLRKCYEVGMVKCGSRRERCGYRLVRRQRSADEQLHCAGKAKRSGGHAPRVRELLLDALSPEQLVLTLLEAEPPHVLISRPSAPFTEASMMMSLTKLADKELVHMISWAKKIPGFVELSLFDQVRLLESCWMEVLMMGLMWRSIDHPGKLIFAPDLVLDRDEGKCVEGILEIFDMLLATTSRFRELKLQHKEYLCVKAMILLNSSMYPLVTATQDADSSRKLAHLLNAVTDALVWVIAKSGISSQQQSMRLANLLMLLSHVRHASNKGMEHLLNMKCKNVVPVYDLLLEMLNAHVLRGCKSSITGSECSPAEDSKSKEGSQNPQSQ
T6 sequence (O95180 whole entry): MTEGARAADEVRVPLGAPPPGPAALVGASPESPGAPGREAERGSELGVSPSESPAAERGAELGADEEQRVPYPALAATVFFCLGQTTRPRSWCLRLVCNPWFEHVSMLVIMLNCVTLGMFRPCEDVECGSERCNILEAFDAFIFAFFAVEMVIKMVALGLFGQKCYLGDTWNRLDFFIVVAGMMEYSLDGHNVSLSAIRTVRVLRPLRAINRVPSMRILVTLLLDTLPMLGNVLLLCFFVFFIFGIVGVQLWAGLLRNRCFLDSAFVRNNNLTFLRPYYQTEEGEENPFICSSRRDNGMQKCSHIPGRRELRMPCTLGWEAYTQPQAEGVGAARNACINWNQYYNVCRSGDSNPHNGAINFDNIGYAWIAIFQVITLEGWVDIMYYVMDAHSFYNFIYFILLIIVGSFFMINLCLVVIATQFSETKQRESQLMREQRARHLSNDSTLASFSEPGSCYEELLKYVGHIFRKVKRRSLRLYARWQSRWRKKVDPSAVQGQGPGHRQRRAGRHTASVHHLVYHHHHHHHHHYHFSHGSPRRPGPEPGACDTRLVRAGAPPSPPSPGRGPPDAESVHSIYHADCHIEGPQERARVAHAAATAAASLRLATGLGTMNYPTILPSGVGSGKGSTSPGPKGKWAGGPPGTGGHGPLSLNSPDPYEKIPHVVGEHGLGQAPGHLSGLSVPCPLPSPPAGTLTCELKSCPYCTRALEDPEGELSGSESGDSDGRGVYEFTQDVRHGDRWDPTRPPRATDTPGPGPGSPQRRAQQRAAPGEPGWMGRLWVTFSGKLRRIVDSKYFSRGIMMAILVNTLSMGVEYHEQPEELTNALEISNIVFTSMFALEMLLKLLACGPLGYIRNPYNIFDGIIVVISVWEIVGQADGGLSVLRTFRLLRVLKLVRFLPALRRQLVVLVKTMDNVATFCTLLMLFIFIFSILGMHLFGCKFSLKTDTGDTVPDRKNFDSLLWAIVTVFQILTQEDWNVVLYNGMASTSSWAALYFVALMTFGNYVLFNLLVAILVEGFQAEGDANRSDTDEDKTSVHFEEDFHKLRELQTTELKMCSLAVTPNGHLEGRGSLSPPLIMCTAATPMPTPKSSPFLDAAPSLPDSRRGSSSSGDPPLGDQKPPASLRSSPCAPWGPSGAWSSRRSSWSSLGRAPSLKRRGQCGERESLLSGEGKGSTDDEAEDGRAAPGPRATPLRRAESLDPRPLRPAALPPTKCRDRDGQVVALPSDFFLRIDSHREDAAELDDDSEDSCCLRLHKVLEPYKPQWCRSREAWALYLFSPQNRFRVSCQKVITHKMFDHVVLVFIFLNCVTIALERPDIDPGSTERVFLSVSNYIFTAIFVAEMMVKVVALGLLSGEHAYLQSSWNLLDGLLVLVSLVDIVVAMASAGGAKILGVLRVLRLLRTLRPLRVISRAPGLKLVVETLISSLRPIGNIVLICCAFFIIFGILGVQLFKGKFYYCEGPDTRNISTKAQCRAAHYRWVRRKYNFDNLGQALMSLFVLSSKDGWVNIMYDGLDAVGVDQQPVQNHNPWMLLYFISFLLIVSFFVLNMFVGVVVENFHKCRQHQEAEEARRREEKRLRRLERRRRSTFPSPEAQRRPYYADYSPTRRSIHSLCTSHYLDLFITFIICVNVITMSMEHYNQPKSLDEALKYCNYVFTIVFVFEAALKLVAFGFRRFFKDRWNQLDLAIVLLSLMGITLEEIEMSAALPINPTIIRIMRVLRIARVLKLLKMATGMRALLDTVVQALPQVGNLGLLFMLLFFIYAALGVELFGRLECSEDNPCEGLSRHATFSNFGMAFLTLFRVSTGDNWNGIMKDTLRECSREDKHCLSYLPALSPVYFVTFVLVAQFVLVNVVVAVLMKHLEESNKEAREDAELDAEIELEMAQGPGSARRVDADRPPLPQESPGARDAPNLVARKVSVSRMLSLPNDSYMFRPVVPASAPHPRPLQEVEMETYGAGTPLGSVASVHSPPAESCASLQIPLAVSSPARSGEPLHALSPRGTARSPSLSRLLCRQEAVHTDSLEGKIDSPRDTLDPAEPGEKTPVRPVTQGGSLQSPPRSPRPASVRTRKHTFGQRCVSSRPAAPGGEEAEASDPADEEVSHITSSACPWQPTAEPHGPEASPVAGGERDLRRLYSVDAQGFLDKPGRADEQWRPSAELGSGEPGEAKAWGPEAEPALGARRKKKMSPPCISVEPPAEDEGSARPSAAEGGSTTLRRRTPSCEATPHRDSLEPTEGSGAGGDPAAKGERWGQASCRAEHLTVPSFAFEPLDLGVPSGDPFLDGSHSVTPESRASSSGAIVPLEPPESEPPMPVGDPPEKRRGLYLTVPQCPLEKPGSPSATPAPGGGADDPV
Sequence of Multidrug resistance protein CDR1 (P43071 whole entry, looked up, the tested form may be a part): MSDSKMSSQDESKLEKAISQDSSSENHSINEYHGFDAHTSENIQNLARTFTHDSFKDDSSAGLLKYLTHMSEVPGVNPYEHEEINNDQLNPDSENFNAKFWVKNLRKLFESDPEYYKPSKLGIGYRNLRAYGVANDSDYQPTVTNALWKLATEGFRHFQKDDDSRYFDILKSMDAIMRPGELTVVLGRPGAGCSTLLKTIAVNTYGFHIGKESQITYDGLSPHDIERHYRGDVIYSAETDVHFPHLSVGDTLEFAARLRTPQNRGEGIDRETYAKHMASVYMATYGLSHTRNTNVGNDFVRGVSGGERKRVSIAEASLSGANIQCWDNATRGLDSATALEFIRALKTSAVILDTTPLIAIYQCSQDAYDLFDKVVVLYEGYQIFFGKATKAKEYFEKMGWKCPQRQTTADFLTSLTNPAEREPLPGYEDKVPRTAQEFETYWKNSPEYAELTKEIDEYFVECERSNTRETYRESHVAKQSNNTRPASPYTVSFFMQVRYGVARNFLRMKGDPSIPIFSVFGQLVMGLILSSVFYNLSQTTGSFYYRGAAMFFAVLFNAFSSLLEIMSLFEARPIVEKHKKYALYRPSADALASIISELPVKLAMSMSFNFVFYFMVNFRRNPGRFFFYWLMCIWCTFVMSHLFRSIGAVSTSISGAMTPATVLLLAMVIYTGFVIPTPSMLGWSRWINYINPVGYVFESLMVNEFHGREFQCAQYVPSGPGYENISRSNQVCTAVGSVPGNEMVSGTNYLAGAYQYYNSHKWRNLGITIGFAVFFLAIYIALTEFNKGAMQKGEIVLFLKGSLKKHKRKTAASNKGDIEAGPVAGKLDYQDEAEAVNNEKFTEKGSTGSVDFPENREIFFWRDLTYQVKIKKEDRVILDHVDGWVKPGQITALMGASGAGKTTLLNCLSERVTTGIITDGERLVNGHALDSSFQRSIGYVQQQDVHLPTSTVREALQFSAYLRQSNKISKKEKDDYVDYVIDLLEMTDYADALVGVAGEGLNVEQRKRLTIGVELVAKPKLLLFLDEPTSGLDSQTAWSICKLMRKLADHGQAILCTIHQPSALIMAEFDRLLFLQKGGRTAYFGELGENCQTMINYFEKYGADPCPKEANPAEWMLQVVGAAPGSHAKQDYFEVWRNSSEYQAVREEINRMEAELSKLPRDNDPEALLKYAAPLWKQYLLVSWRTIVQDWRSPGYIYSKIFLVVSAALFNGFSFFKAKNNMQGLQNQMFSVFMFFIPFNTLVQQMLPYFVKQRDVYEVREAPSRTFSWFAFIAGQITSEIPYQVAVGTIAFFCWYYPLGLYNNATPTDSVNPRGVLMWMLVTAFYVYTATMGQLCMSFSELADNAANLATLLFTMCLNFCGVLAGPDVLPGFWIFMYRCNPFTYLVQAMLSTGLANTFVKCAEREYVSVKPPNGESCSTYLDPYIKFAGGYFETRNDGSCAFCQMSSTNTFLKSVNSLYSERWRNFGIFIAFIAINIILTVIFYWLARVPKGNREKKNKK
Sequence of Bcl-2-like protein 10 (Q9HD36 whole entry): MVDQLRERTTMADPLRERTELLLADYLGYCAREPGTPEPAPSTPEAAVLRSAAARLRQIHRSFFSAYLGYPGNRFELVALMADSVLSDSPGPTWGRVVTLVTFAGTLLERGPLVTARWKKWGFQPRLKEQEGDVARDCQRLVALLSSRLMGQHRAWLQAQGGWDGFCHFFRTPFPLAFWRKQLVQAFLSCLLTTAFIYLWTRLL
Sequence of Glyceraldehyde-3-phosphate dehydrogenase (P04406 whole entry): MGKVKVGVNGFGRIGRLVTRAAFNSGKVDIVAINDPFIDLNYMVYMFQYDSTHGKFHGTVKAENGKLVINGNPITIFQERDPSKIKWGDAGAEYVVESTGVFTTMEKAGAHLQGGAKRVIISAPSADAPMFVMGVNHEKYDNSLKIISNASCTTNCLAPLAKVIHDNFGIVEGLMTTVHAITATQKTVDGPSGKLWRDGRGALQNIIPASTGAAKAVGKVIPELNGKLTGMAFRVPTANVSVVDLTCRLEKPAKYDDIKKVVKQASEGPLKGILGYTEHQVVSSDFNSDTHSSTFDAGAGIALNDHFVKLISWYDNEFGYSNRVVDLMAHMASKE

In the case of `COc1ccc(N2Cc3cccc(C(=O)O)c3C2=O)cc1`, the IC50 (Ephrin type-A receptor 4) is reported as 9.05 µM (active), the IC50 (Estrogen receptor beta [1]) is reported as 2.15 µM (active) and the IC50 [2] is reported as > 100 µM (not active). For the same molecule, the IC50 [3] was > 100 µM (inactive), the IC50 [4] was 4.43 µM (active) and the IC50 (Estrogen receptor) was 12 µM (active). For the same molecule, the IC50 [5] was > 10 µM (not active), the IC50 (Estrogen receptor beta [6]) was 0.704 µM (not active) and the IC50 (Bcl-2-like protein 10) was 4.06 µM (active). For the same molecule, the IC50 [7] was > 100 µM (inactive) and the IC50 [8] was > 100 µM (not active).
With `CC1CCc2c(sc(NC(=O)c3cccs3)c2C(=O)O)C1` (stereo not given) the IC50 (HEK293 [9]) was > 20 µM (inactive), the IC50 [10] was > 20 µM (inactive) and the IC50 [11] was > 20 µM (inactive). For the same molecule, the IC50 (Tumor necrosis factor) was > 20 µM (inactive), the IC50 (HEK293 [12]) was > 20 µM (inactive) and the EC50 (HEK293 [13]) was > 20 µM (inactive). The IC50 (HEK293 [14]) was > 20 µM (inactive) and the IC50 (HEK293 [15]) was > 20 µM (inactive).
For `CCC1Nc2ncnc(N3CCN(c4ccccn4)CC3)c2N(Cc2ccc(Br)cc2)C1=O` (stereo not given), the EC50 [16] was 12.4 µM (active) and the IC50 [17] was 3.71 µM (active).
In the case of `COc1ccc(NC2SC(=O)N(C)C2=O)cc1` (stereo not given), the IC50 [18] is reported as > 300 µM (active) and the IC50 (Large T antigen) is reported as 80.8 µM (active).
With `O=C(Nc1ccccc1)c1ccccc1NS(=O)(=O)c1ccc(Cl)s1` the EC50 [19] was 1.05 µM (active) and the EC50 [20] was 0.808 µM (active).
